“Also recorded” adds a separate entry of the source.
Assays:
[1] = tested on: NB4 cells; assay: NB4 differentiation (NBT reduction, CD11b); type: cell-based, human; conditions: 6 days with drug, washed, 6 days without
Experimental: Differentiation of AML cell lines was assessed by their ability to produce superoxide as measured by reduction of NBT to formazan and by analysis of expression of CD11b surface marker by flow cytometry. For NBT reduction, each cell suspension was mixed with an equal volume of solution containing 1 mg/ml of NBT (Sigma) and 2.5 μg/ml of TPA for 30 minutes at 37° C. After incubation, cells containing the purple formazan deposits and cells devoid of NBT-reducing activity (white cells) in each sample were determined by counting 200 cells under microscope. Data is expressed as a percentage based on the following ratio: purple cells/purple+white cells. For analysis of cell surface antigens, cells were exposed to phycoerythrin (PE)-conjugated murine anti-human CD11b (DAKO Corp., Carpinteria, Calif.). Analysis of fluorescence was performed on a FACScan flow cytometer (Beckton Dickinson, Mountain View, Calif.).

[2] = tested on: Renca cells; assay: Renca cell growth, MTT; type: cell-based, murine; conditions: SSG 6.25-200 μg/ml, 6 days; listed as SSG
Excerpt: Renca (Murphy, G. P., and W. J. Hrushesky. 1973. A murine renal cell carcinoma. J Natl Cancer Inst 50:1013), Jurkat (Gillis, S., and J. Watson. 1980. Biochemical and biological characterization of lymphocyte regulatory molecules. V. Identification of an interleukin 2-producing human leukemia T cell line. J Exp Med 152:1709) and WM9 (Forsberg, K., I. Valyi-Nagy, C. H. Heldin, M. Herlyn, and B. Westermark. 1993. Platelet-derived growth factor (PDGF) in oncogenesis: development of a vascular connective tissue stroma in xenotransplanted human melanoma producing PDGF-BB. Proc Natl Acad Sci USA 90:393) cell lines were obtained from a colleague at the Cleveland Clinic Foundation (CCF) and cultured in RPMI 1640 medium supplemented with 10% fetal calf serum (FCS). Recombinant IL-2 (Proleukin, 22 million IU/1.3 mg, Chiron, Emeryville, Calif.) was purchased from the CCF pharmacy. […] For cell growth inhibition assays, cells were cultured in absence or presence of various amounts of SSG for 6 days with viable cells quantified by MTT assays as described elsewhere (Pathak, M. K., and T. Yi. 2001. Sodium stibogluconate is a potent inhibitor of protein tyrosine phosphatases and augments cytokine responses in hemopoietic cell lines. J Immunol 167:3391).

[3] = tested on: NB4 cells; assay: NB4 growth, cell cycle and Annexin V; type: cell-based, human
Experimental: The NB4 cell line (Lanotte et al., Blood 77, 1080 (1991)) was a gift from Dr. Dan Lindner of the Cleveland Clinic Foundation. […] and U937 cell lines were purchased from American Type Culture Collection (Rockville, Md.). These human […] cell lines were maintained in RPMI 1640 medium supplemented with 10% fetal calf serum (FCS). For cell proliferation assays, cells were cultured at 37° C. in 10% FCS medium containing various amounts of sodium stibogluconate for 6 days. The cell numbers in the cultures were determined by an MTT assay as described previously in Mosmann, J. Immunol. Methods 65, 55 (1983).
The cell cycle was analyzed by flow cytometry after 3 days of culture of NB4 cells in the absence or presence of sodium stibogluconate (250 μg/ml) or ATRA (1 μM). Briefly, the cells were fixed in cold ethanol and incubated for 30 minutes at 4° C. in the dark with a solution of […] propidium iodide, 1 mg/ml RNase and 0.1% NP-40. Analysis was performed immediately after staining using the CELLFIT program (Becton Dickinson, Mountain View, Calif.).
Annexin V staining of exposed membrane phospholipid phosphatidylserine (PS) was done using the Annexin V assay kit (Pharmingen, San Diego, Calif.). Briefly, NB4 cells were cultured in the 10% FCS RPMI 1640 medium in the absence or presence of sodium stibogluconate (250 μg/ml) or ATRA (1 μM) for 3 days. Cells were then washed in PBS twice and stained in binding buffer (10 mM Hepes, pH 7.4; 140 mM NaCl; 2.5 mM CaCl2) containing Annexin V-FITC and propidium iodide for 15 min. The reaction was stopped by adding 10 volumes of binding buffer and analyzed by FACS (Becton Dickinson Facsvantage).

[4] = toxicity in nude mice; type: in vivo
Experimental: Nude mice bearing WM9 or DU145 xenografts were treated with IFN-alpha (500,000 U, s.c., daily), sodium stibogluconate (12 mg Sb, s.c., daily) or both. […] The dosage of sodium stibogluconate corresponds to approximately 440 mg Sb/kg body weight (average mouse body weight 27 g), substantially higher than the standard therapeutic dose of 20 mg Sb/kg and the high dose (143 mg Sb/kg) that was clinically used by accident without serious toxicity. This dose of sodium stibogluconate was based on a previous observation in a pilot study that mice could tolerate daily dose of 20 mg Sb (approximately 700-800 mg Sb/kg). An observation that the effect of sodium stibogluconate in inhibiting the growth of the cancer cell lines in vitro was dose-dependent with complete or near complete killing of the cancer cells at 100 μg Sb/ml (or […]) was also considered. […]
As discussed above, the dosage of sodium stibogluconate used for the treatment of nude mice was 12 mg Sb/mouse, s.c., daily (or approximately 440 mg/kg body weight). […] As an initial step to assess the toxicity of such a high dosage of sodium stibogluconate in nude mice, the effect of sodium stibogluconate on the viability and body weights of WM9 xenografts nude mice during the 25 day period of the study was determined.

[5] = tested on: C42; assay: C42 cell growth, MTT; type: cell-based, human
Experimental: (§1) For cell proliferation assays, cells were grown in 10% FCS culture medium containing various amounts of IFNs and/or sodium stibogluconate in 96 well plates and cultured at 37° C. for 3 or 6 days as indicated. The numbers of viable cells in proliferation assays were determined by MTT assays as described in Phatak et al., J. Immunol. 167, 3391 (2001).

[6] = tested on: DS cells; assay: DS cell growth, MTT; type: cell-based, human; conditions: day 3; IFN-alpha 1,000 u/ml or sodium stibogluconate by itself
Experimental: as §1

## O.O.O.O.O.O.O.O.O.O=C([O-])[C@@H]1[O][Sb]2([O-])([O][Sb]34([OH])[O][C@H]([C@H](O)CO)[C@H]([O]3)[C@H](C(=O)[O-])[O]4)[O][C@H]([C@H](O)CO)[C@@H]1[O]2.[Na+].[Na+].[Na+] [sodium stibogluconate]
[1]
  reversal of NB4 differentiation after drug removal: not reversed
[2]
  Renca cell growth in culture: failed to inhibit Renca cell proliferation
[3]; 250 μg/ml, 6 days
  Annexin V staining of NB4 cells: stained positive by Annexin V
[3]; 12.5-400 μg/ml
  proliferation of NB4 cells: markedly inhibited
[3]; sodium stibogluconate 250 μg/ml or ATRA 1 μM, 3 days
  cell cycle of NB4 cells: significant increase of cells at S phase
[4]; WM9 xenograft mice, 25 days, 12 mg Sb daily (440 mg Sb/kg), IFN-alpha 500,000 U
  viability and tolerance of treated mice: survived until the end of the study; also recorded: well tolerated with no serious side effects
[4]; mice, approximately 700-800 mg Sb/kg
  tolerated daily dose, pilot study: 20 mg Sb
[5]
  sensitivity of C42 cells: highly resistant
[6]
  DS cell growth: modest activity
